Where “and” joins values, the source holds several entries; their conditions need not be identical. Equal values may be shown once.
How the values were obtained:
Assay in all cases: radiometric filter-binding kinase assay, Kinase HotSpot
Settings in all cases: compound 0.5 µM; ATP 10 µM
PRKCH (human) = PRKCH (human) (UniProt P24723)
PAK1 (human) = PAK1 (human) (UniProt Q13153)
NEK9 (human) = NEK9 (human) (UniProt Q8TD19)
AURKB (human) = AURKB (human) (UniProt Q96GD4)
FLT3 (human) = FLT3 (human) (UniProt P36888)
JAK3 JH1 JH2 (human) = JAK3 JH1 JH2 (human) (UniProt P52333)
CDC42BPA (human) = CDC42BPA (human) (UniProt Q5VT25)
IKBKB (human) = IKBKB (human) (UniProt O14920)
CDK3 CCNE1 (human) = CDK3 CCNE1 (human) (UniProt Q00526+P24864)
MST4 (human) = MST4 (human) (UniProt Q9P289)
NLK (human) = NLK (human) (UniProt Q9UBE8)
CDK6 CCND3 (human) = CDK6 CCND3 (human) (UniProt P30281+Q00534)
MAP4K4 (human) = MAP4K4 (human) (UniProt O95819)
ALK (human) = ALK (human) (UniProt Q9UM73)
CHEK2 (human) = CHEK2 (human) (UniProt O96017)
CSK (human) = CSK (human) (UniProt P41240)
MAP3K11 (human) = MAP3K11 (human) (UniProt Q16584)
PRKCG (human) = PRKCG (human) (UniProt P05129)
CAMK2A (human) = CAMK2A (human) (UniProt Q9UQM7)
MAPKAPK2 (human) = MAPKAPK2 (human) (UniProt P49137)
CDK7 CCNH MNAT1 (human) = CDK7 CCNH MNAT1 (human) (UniProt P50613+P51948+P51946)
BRAF (human) = BRAF (human) (UniProt P15056)
GSG2 (human) = GSG2 (human) (UniProt Q8TF76)
EPHA6 (human) = EPHA6 (human) (UniProt Q9UF33)
MATK (human) = MATK (human) (UniProt P42679)
CDK6 CCND1 (human) = CDK6 CCND1 (human) (UniProt Q00534+P24385)
STK39 (human) = STK39 (human) (UniProt Q9UEW8)
EPHA4 (human) = EPHA4 (human) (UniProt P54764)
LYN (human) = LYN (human) (UniProt P07948)
VRK1 (human) = VRK1 (human) (UniProt Q99986)
EGFR (human) = EGFR (human) (UniProt P00533)
DCLK2 (human) = DCLK2 (human) (UniProt Q8N568)
PRKCE (human) = PRKCE (human) (UniProt Q02156)
PLK3 (human) = PLK3 (human) (UniProt Q9H4B4)
NEK6 (human) = NEK6 (human) (UniProt Q9HC98)
IGF1R (human) = IGF1R (human) (UniProt P08069)
DAPK2 (human) = DAPK2 (human) (UniProt Q9UIK4)
PRKG1 (human) = PRKG1 (human) (UniProt Q13976)
MAP3K7 TAB1 (human) = MAP3K7 TAB1 (human) (UniProt O43318+Q15750)
ULK3 (human) = ULK3 (human) (UniProt Q6PHR2)
CLK2 (human) = CLK2 (human) (UniProt P49760)
CLK2 (human), sequence (P49760 whole entry, looked up): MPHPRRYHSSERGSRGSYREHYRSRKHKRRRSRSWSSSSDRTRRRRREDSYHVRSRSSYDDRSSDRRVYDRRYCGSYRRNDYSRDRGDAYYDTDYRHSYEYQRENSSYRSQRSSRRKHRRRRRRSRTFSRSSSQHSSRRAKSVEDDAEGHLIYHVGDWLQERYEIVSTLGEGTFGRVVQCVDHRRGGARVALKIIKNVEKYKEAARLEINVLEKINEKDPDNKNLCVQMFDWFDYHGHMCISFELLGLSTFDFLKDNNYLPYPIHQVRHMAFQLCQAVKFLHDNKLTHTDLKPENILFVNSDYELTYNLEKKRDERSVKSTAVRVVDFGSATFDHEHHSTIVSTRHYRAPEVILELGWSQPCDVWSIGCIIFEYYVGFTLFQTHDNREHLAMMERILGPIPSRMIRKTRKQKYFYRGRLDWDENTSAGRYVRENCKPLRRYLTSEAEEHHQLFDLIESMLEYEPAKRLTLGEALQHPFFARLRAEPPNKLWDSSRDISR

BRAF (human), sequence (P15056 whole entry, looked up): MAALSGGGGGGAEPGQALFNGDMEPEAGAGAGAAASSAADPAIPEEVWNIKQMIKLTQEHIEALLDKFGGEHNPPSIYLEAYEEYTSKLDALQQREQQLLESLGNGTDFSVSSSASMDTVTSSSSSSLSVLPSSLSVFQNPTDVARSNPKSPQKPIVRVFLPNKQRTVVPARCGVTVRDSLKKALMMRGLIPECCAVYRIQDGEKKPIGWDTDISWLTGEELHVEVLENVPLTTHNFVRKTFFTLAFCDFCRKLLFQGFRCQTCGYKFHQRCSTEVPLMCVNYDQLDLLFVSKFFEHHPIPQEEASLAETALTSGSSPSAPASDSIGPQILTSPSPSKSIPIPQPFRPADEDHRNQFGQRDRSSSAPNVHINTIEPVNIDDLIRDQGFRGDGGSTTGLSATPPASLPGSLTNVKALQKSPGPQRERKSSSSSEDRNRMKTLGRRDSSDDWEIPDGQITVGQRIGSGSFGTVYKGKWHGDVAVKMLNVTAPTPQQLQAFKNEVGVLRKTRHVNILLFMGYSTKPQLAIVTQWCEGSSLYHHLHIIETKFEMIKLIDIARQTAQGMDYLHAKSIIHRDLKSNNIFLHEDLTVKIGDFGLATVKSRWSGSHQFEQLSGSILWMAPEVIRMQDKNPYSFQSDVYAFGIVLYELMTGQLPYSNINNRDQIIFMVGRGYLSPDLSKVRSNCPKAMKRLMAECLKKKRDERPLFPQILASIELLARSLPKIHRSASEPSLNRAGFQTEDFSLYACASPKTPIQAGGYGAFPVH
CDK7 CCNH MNAT1 (human), sequence (P50613 whole entry, looked up): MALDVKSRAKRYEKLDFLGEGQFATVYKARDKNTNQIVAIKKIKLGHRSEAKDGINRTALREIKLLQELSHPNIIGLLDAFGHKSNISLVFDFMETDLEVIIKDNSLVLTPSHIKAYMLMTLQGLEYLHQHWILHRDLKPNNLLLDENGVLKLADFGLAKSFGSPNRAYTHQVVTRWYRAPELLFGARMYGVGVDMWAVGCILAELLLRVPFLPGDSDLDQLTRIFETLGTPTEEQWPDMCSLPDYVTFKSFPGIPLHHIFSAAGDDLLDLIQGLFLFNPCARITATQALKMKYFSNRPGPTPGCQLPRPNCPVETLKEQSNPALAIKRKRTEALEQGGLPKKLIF
CDK7 CCNH MNAT1 (human), sequence (P51946 whole entry, looked up): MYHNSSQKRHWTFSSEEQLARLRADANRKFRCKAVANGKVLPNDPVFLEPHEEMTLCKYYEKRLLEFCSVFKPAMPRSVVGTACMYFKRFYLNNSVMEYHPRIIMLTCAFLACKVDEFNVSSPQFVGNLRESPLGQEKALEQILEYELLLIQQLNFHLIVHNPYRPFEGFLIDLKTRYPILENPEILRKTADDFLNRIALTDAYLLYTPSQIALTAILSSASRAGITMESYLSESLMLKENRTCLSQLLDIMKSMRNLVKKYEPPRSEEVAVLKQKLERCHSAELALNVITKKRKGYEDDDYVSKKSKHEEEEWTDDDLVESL
CDK7 CCNH MNAT1 (human), sequence (P51948 whole entry, looked up): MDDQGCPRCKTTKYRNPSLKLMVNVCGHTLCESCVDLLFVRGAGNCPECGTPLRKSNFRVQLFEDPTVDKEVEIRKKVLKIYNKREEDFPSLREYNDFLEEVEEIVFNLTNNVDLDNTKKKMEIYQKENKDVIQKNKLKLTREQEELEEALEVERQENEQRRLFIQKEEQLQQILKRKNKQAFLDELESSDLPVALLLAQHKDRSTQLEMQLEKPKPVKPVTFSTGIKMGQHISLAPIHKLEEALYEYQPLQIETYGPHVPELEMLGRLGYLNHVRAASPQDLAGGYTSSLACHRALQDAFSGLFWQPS
MST4 (human), sequence (Q9P289 whole entry, looked up): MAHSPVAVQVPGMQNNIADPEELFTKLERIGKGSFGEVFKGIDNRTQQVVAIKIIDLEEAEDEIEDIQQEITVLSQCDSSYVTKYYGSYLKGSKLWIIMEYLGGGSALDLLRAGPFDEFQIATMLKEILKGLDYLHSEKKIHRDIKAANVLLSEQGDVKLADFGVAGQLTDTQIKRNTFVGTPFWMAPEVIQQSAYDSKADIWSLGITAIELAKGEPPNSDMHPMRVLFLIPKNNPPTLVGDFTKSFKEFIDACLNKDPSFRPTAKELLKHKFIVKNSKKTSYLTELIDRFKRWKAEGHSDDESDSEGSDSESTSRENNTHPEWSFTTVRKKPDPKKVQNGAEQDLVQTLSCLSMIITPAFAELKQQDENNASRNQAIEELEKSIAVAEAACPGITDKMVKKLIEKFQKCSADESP
MATK (human), sequence (P42679 whole entry, looked up): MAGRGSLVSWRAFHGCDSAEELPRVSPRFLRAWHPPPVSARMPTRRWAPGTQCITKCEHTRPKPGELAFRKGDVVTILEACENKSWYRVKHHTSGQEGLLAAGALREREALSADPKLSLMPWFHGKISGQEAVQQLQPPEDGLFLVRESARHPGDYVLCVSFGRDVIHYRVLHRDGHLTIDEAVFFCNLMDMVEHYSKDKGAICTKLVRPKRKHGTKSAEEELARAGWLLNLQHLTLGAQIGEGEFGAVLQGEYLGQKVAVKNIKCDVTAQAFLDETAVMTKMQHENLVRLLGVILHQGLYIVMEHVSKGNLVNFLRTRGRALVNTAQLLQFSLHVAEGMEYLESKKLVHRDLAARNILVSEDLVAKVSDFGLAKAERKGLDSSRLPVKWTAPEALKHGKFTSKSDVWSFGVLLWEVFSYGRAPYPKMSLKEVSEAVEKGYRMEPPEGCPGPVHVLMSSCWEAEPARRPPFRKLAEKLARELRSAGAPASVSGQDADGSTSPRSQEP
NLK (human), sequence (Q9UBE8 whole entry, looked up): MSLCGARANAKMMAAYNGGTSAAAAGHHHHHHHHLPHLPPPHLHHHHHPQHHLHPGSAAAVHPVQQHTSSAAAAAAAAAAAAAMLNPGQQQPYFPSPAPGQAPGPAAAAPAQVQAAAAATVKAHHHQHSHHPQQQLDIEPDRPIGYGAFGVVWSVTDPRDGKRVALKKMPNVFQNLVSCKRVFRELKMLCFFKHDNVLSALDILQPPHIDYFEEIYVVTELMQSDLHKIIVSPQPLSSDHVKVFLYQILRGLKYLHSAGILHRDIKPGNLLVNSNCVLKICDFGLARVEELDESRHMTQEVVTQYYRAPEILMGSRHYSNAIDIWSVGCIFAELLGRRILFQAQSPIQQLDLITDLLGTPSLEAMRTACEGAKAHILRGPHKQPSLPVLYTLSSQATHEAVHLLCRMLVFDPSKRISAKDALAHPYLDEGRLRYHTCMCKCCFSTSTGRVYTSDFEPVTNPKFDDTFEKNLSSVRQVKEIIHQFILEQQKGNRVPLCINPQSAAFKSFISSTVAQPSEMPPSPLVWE
EPHA4 (human), sequence (P54764 whole entry, looked up): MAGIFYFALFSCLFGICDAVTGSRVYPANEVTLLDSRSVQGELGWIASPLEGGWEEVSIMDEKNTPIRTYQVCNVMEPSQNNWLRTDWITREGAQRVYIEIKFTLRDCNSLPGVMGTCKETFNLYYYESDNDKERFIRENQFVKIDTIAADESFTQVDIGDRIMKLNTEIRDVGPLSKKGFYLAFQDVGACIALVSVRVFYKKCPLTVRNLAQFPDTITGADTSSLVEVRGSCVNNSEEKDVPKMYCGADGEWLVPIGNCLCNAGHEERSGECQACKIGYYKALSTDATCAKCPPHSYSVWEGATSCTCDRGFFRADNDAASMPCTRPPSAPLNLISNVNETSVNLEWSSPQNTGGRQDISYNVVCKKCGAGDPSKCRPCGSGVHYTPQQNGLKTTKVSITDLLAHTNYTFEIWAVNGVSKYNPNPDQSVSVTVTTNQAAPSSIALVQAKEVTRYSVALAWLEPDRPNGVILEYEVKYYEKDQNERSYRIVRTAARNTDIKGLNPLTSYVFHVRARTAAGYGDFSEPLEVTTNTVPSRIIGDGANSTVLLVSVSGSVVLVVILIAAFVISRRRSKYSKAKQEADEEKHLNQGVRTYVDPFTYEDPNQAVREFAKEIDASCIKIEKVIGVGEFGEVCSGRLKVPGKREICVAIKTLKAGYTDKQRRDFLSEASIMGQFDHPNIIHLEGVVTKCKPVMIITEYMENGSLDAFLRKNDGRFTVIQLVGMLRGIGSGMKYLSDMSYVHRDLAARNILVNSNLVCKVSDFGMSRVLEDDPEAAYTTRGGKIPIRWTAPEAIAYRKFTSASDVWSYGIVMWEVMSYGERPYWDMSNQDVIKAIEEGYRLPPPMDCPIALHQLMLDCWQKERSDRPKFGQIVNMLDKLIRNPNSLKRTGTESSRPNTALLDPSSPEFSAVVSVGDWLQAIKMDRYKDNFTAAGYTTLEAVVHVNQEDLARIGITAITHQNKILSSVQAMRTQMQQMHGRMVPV
NEK6 (human), sequence (Q9HC98 whole entry, looked up): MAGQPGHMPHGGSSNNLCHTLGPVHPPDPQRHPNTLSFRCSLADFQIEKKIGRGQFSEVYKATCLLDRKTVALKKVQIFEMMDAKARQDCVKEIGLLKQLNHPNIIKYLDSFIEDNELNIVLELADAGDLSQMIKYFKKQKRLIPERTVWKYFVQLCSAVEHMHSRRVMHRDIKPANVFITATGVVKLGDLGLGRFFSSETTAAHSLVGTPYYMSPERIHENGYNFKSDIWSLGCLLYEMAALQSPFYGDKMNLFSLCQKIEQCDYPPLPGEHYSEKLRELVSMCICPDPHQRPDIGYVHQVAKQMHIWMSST

c1ccc2c(-c3ccncc3)c[nH]c2c1
residual activity (PRKCH (human)): 84.9% | residual activity (PAK1 (human)): 99.1% | residual activity (NEK9 (human)): 101% | residual activity (AURKB (human)): 95.9% | residual activity (FLT3 (human)): 91.5% | residual activity (JAK3 JH1 JH2 (human)): 95.3% | residual activity (CDC42BPA (human)): 99.9% | residual activity (IKBKB (human)): 102% | residual activity (CDK3 CCNE1 (human)): 98.2% | residual activity (MST4 (human)): 104% | residual activity (NLK (human)): 95.1% | residual activity (CDK6 CCND3 (human)): 101% | residual activity (MAP4K4 (human)): 54.4% | residual activity (ALK (human)): 106% | residual activity (CHEK2 (human)): 99.3% | residual activity (CSK (human)): 107% | residual activity (MAP3K11 (human)): 95.2% | residual activity (PRKCG (human)): 99.4% | residual activity (CAMK2A (human)): 104% | residual activity (MAPKAPK2 (human)): 101% | residual activity (CDK7 CCNH MNAT1 (human)): 97% | residual activity (BRAF (human)): 94% | residual activity (GSG2 (human)): 62.3% | residual activity (EPHA6 (human)): 104% | residual activity (MATK (human)): 93.9% | residual activity (CDK6 CCND1 (human)): 97.6% | residual activity (STK39 (human)): 99.8% | residual activity (EPHA4 (human)): 108% | residual activity (LYN (human)): 100% and 102% | residual activity (VRK1 (human)): 101% | residual activity (EGFR (human)): 97.3% | residual activity (DCLK2 (human)): 98.1% | residual activity (PRKCE (human)): 81.5% | residual activity (PLK3 (human)): 95.3% | residual activity (NEK6 (human)): 93.4% | residual activity (IGF1R (human)): 105% | residual activity (DAPK2 (human)): 108% | residual activity (PRKG1 (human)): 64.8% and 77.7% | residual activity (MAP3K7 TAB1 (human)): 95.5% | residual activity (ULK3 (human)): 83% | residual activity (CLK2 (human)): 101%

Cc1cccc(-c2nc(C(C)(C)C)[nH]c2-c2ccc3c(c2)OCO3)n1
residual activity (PRKCH (human)): 104% | residual activity (PAK1 (human)): 96.3% | residual activity (NEK9 (human)): 95.6% | residual activity (AURKB (human)): 96.5% | residual activity (FLT3 (human)): 96.2% | residual activity (JAK3 JH1 JH2 (human)): 92.6% | residual activity (CDC42BPA (human)): 89.6% | residual activity (IKBKB (human)): 105% | residual activity (CDK3 CCNE1 (human)): 97.6% | residual activity (MST4 (human)): 95.5% | residual activity (NLK (human)): 87.9% | residual activity (CDK6 CCND3 (human)): 98% | residual activity (MAP4K4 (human)): 86.9% | residual activity (ALK (human)): 103% | residual activity (CHEK2 (human)): 96.4% | residual activity (CSK (human)): 102% | residual activity (MAP3K11 (human)): 96.2% | residual activity (PRKCG (human)): 107% | residual activity (CAMK2A (human)): 103% | residual activity (MAPKAPK2 (human)): 103% | residual activity (CDK7 CCNH MNAT1 (human)): 106% | residual activity (BRAF (human)): 111% | residual activity (GSG2 (human)): 78.7% | residual activity (EPHA6 (human)): 92.7% | residual activity (MATK (human)): 100% | residual activity (CDK6 CCND1 (human)): 95.2% | residual activity (STK39 (human)): 107% | residual activity (EPHA4 (human)): 97.3% | residual activity (LYN (human)): 82.8% and 99.2% | residual activity (VRK1 (human)): 97.5% | residual activity (EGFR (human)): 96.4% | residual activity (DCLK2 (human)): 101% | residual activity (PRKCE (human)): 97.9% | residual activity (PLK3 (human)): 95.6% | residual activity (NEK6 (human)): 109% | residual activity (IGF1R (human)): 96.2% | residual activity (DAPK2 (human)): 102% | residual activity (PRKG1 (human)): 74.6% and 91% | residual activity (MAP3K7 TAB1 (human)): 96.3% | residual activity (ULK3 (human)): 80.4% | residual activity (CLK2 (human)): 95.2%

O=C1Nc2ccc(Br)cc2/C1=C\c1cc2c([nH]1)CCCC2
residual activity (PRKCH (human)): 97.4% | residual activity (PAK1 (human)): 95.7% | residual activity (NEK9 (human)): 85.6% | residual activity (AURKB (human)): 56.7% | residual activity (FLT3 (human)): 3.86% | residual activity (JAK3 JH1 JH2 (human)): 89.3% | residual activity (CDC42BPA (human)): 81.9% | residual activity (IKBKB (human)): 102% | residual activity (CDK3 CCNE1 (human)): 93.2% | residual activity (MST4 (human)): 87.9% | residual activity (CDK6 CCND3 (human)): 85.8% | residual activity (MAP4K4 (human)): 6.84% | residual activity (ALK (human)): 88.5% | residual activity (CHEK2 (human)): 68.2% | residual activity (CSK (human)): 98.5% | residual activity (MAP3K11 (human)): 16.8% | residual activity (PRKCG (human)): 100% | residual activity (CAMK2A (human)): 93.3% | residual activity (MAPKAPK2 (human)): 97.5% | residual activity (CDK7 CCNH MNAT1 (human)): 93.6% | residual activity (BRAF (human)): 92.5% | residual activity (GSG2 (human)): 88% | residual activity (EPHA6 (human)): 89.2% | residual activity (MATK (human)): 94.2% | residual activity (CDK6 CCND1 (human)): 90.4% | residual activity (STK39 (human)): 86% | residual activity (EPHA4 (human)): 94.8% | residual activity (LYN (human)): 70.8% and 86.8% | residual activity (VRK1 (human)): 108% | residual activity (EGFR (human)): 87.4% | residual activity (DCLK2 (human)): 98.2% | residual activity (PRKCE (human)): 99.1% | residual activity (PLK3 (human)): 97.8% | residual activity (NEK6 (human)): 103% | residual activity (IGF1R (human)): 74.3% | residual activity (DAPK2 (human)): 102% | residual activity (PRKG1 (human)): 77% and 87.9% | residual activity (MAP3K7 TAB1 (human)): 60.9% | residual activity (ULK3 (human)): 55.5% | residual activity (CLK2 (human)): 88.6%

O=C1C(Cl)=C(N2C(=O)CCC2=O)C(=O)c2ccccc21
residual activity (PRKCH (human)): 93.1% | residual activity (PAK1 (human)): 96.3% | residual activity (NEK9 (human)): 98.3% | residual activity (AURKB (human)): 103% | residual activity (FLT3 (human)): 108% | residual activity (JAK3 JH1 JH2 (human)): 101% | residual activity (CDC42BPA (human)): 103% | residual activity (IKBKB (human)): 101% | residual activity (CDK3 CCNE1 (human)): 102% | residual activity (MST4 (human)): 98.3% | residual activity (NLK (human)): 105% | residual activity (CDK6 CCND3 (human)): 99.2% | residual activity (MAP4K4 (human)): 93.7% | residual activity (ALK (human)): 88.5% | residual activity (CHEK2 (human)): 95.7% | residual activity (CSK (human)): 79.5% | residual activity (MAP3K11 (human)): 102% | residual activity (PRKCG (human)): 97.5% | residual activity (CAMK2A (human)): 89.6% | residual activity (MAPKAPK2 (human)): 105% | residual activity (CDK7 CCNH MNAT1 (human)): 101% | residual activity (BRAF (human)): 96.3% | residual activity (GSG2 (human)): 101% | residual activity (EPHA6 (human)): 89.5% | residual activity (MATK (human)): 88% | residual activity (CDK6 CCND1 (human)): 100% | residual activity (STK39 (human)): 97.3% | residual activity (EPHA4 (human)): 101% | residual activity (LYN (human)): 93.5% and 97% | residual activity (VRK1 (human)): 92.4% | residual activity (EGFR (human)): 98.4% | residual activity (DCLK2 (human)): 100% | residual activity (PLK3 (human)): 96.6% | residual activity (NEK6 (human)): 104% | residual activity (IGF1R (human)): 107% | residual activity (DAPK2 (human)): 133% | residual activity (PRKG1 (human)): 104% and 97.8% | residual activity (MAP3K7 TAB1 (human)): 99.5% | residual activity (ULK3 (human)): 102% | residual activity (CLK2 (human)): 90.7%

N#C/C(=C\c1ccc(O)c(O)c1)C(=O)NCc1ccccc1
residual activity (PRKCH (human)): 95.5% | residual activity (PAK1 (human)): 97.7% | residual activity (NEK9 (human)): 97.2% | residual activity (AURKB (human)): 94.4% | residual activity (FLT3 (human)): 92.8% | residual activity (CDC42BPA (human)): 99.4% | residual activity (IKBKB (human)): 103% | residual activity (MST4 (human)): 103% | residual activity (NLK (human)): 110% | residual activity (CDK6 CCND3 (human)): 104% | residual activity (ALK (human)): 105% | residual activity (CHEK2 (human)): 97.5% | residual activity (CSK (human)): 101% | residual activity (MAP3K11 (human)): 97% | residual activity (PRKCG (human)): 97.2% | residual activity (CAMK2A (human)): 100% | residual activity (MAPKAPK2 (human)): 101% | residual activity (CDK7 CCNH MNAT1 (human)): 120% | residual activity (BRAF (human)): 109% | residual activity (GSG2 (human)): 104% | residual activity (EPHA6 (human)): 95.7% | residual activity (MATK (human)): 86.3% | residual activity (CDK6 CCND1 (human)): 95.6% | residual activity (STK39 (human)): 99.8% | residual activity (EPHA4 (human)): 99.5% | residual activity (LYN (human)): 105% and 99.8% | residual activity (VRK1 (human)): 97% | residual activity (EGFR (human)): 72.4% | residual activity (DCLK2 (human)): 101% | residual activity (PRKCE (human)): 100% | residual activity (PLK3 (human)): 96.1% | residual activity (NEK6 (human)): 104% | residual activity (IGF1R (human)): 85.1% | residual activity (DAPK2 (human)): 98.5% | residual activity (PRKG1 (human)): 89.2% and 92.6% | residual activity (MAP3K7 TAB1 (human)): 98.1% | residual activity (ULK3 (human)): 71.2% | residual activity (CLK2 (human)): 110%

Reference: the kinase profiling compilation of Christmann-Franck et al. (2016)
